Measured values taken from patent US20230250096A1, “SUBSTITUTED PHENYL-1H-PYRROLO[2,3-c] PYRIDINE DERIVATIVES” (Janssen Pharmaceutica NV, priority 2021, published 2023).
Like-named read-outs stand apart in the source and are kept apart here.

Columns and labels:
[1] = molecular target: T1, menin/MLL (terbium chelate-labeled menin, FITC-MBM1 peptide) (Homo sapiens, UniProt O00255, T541A); assay: Menin/MLL homogenous time-resolved fluorescence (HTRF) assay; assay type: binding; conditions: 30 min incubation
T1 construct: Menin (a.a 1-610-6xhis tag, 2.3 mg/mL in 20 mM Hepes)
T1 sequence (O00255 with tags, fused parts or gaps T541A): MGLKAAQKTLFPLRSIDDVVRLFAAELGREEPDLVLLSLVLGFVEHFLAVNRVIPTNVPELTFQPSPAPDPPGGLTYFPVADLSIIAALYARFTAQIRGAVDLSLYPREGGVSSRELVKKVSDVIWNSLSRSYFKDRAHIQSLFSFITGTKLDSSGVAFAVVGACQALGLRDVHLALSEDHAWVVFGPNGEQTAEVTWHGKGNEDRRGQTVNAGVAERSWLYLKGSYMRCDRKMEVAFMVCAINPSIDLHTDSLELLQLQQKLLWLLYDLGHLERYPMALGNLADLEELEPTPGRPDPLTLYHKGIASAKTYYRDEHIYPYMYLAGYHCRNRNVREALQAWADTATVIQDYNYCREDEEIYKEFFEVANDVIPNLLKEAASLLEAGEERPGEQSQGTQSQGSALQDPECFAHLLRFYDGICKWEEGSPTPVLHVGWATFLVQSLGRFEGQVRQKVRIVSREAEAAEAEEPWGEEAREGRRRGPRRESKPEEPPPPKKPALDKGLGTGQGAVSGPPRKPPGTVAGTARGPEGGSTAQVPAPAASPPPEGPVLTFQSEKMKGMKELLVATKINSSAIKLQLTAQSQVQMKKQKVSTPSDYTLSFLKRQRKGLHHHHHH
In short: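 Terbium-labeled menin (a.a. 1-610, His-tagged; […]) pre-incubated 30 min with compound, then 75 nM FITC-MBM1 peptide added for 15 min at ambient temperature in Tris pH 7.5 buffer, 0.5% DMSO. HTRF 520/490 nm ratio read; IC50 from 11-point four-fold titrations, typically from 10 μM.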

[2] = tested on: KO-52 cells; assay: Proliferation assay (spheroid confluence, 8 days), KO-52 control cell line; assay type: cell-based, human; conditions: Homo sapiens, read-out: spheroid assay_KO-52 IC50
Protocol: (§1) The anti-proliferative effect of menin/MLL protein/protein interaction inhibitor test compounds was assessed in human leukemia cell lines. The cell line MOLM14 harbors a MLL translocation and expresses the MLL fusion protein MLL-AF9, respectively, as well as the wildtype protein from the second allele. OCI-AML3 cells that carry the NPM1c gene mutation were also tested. […] KO-52 was used as a control cell line containing two MLL (KMT2A) wildtype alleles in order to exclude compounds that display general cytotoxic effects.
(§2) MOLM14 cells were cultured in RPMI-1640 (Sigma Aldrich) supplemented with 10% heat-inactivated fetal bovine serum (HyClone), 2 mM L-glutamine (Sigma Aldrich) and 50 μg/ml gentamycin (Gibco). KO-52 and OCI-AML3 cell lines were propagated in alpha-MEM (Sigma Aldrich) supplemented with 20% heat-inactivated fetal bovine serum (HyClone), 2 mM L-glutamine (Sigma Aldrich) and 50 μg/ml gentamycin (Gibco).
(§3) In order to assess the anti-proliferative effects, 200 MOLM14 cells, 200 OCI-AML3 cells or 300 KO-52 cells were seeded in 200 μl media per well in 96-well round bottom, ultra-low attachment plates (Costar, catalogue number 7007). Cell seeding numbers were chosen based on growth curves to ensure linear growth throughout the experiment. Test compounds were added at different concentrations and the DMSO content was normalized to 0.3%. Cells were incubated for 8 days at 37° C. and 5% CO2. Spheroid like growth was measured in real-time by live-cell imaging (IncuCyteZOOM, Essenbio, 4×objective) acquiring images at day 8. Confluence (%) as a measure of spheroid size was determined using an integrated analysis tool.
(§4) In order to determine the effect of the test compounds over time, the confluence in each well as a measure of spheroid size, was calculated. Confluence of the highest dose of a reference compound was used as baseline for the LC (Low control) and the confluence of DMSO treated cells was used as 0% cytotoxicity (High Control, HC).
(§5) Absolute IC50 values were calculated as percent change in confluence as follows:
(§6) LC=Low Control: cells treated with e.g. 1 μM of the cytotoxic agent staurosporin, or e.g. cells treated with a high concentration of an alternative reference compound
(§7) HC=High Control: Mean confluence (%) (DMSO treated cells)
(§8) % Effect=100−(100*(Sample−LC)/(HC−LC))
(§9) GraphPad Prism (version 7.00) was used to calculate the IC50. Dose-response equation was used for the plot of % Effect vs Log10 compound concentration with a variable slope and fixing the maximum to 100% and the minimum to 0%.

[3] = tested on: MOLM14 cells; assay: Proliferation assay (spheroid confluence, 8 days), MOLM14; assay type: cell-based, human; conditions: read-out: spheroid assay_MOLM14 IC50
Protocol: as §1, §2, §3, §4, §5, §6, §7, §8, §9

[4] = tested on: OCI-AML3 cells; assay: Proliferation assay (spheroid confluence, 8 days), OCI-AML3; assay type: cell-based, human; conditions: read-out: spheroid assay_OCI-AML3 IC50
Protocol: as §1, §2, §3, §4, §5, §6, §7, §8, §9

[5] = tested on: MEIS1 mRNA expression; assay: MEIS1 mRNA expression assay (Quantigene Singleplex) in MOLM14 cells; assay type: cell-based, human; conditions: 48 hours incubation
In short: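 MOLM14 cells, 3,750/well, exposed to increasing compound concentrations for 48 h. MEIS1 mRNA measured by QuantiGene Singleplex branched-DNA hybridization (lysis 45 min, hybridization 18–22 h, both 55 °C), normalized to RPL28. IC50 fitted to background-corrected fold change versus DMSO.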

Row | SMILES | IC50 [1] | IC50 [2] | IC50 ([3]; Homo sapiens, MOLM-14, MOLM14) | IC50 ([4]; Homo sapiens, OCI-AML-3, OCI-AML3) | IC50 ([4]; OCI-AML3) | IC50 [5] | IC50 ([5]; Homo sapiens, MOLM-14, 48 h) | IC50 ([3]; MOLM14)
1 | CCN(C(=O)c1cc(F)ccc1-n1cc(CC2CN(C(C(C)C)[C@H]3C[C@H](N4C[C@H]5CN(C(C)=O)C[C@@H]5C4)C3)C2)c2c(C)cncc21)C(C)C (mixture of isomers) [Compound 38b] | 0.013 nM | 1200 nM | 2 nM | – | – | – | – | –
2 | CNC(=O)N1CCC(CN2CC[C@H](Cc3cn(-c4ccc(F)cc4C(=O)N(C)C(C)C)c4cncc(C)c34)C2)CC1 (single isomer, unassigned) [Compound 101] | 0.041 nM | 3100 nM | – | 8 nM | – | – | – | –
3 | Cc1cncc2c1c(C[C@@H]1CCN(CC3CCNC(=O)CC3)C1)cn2-c1ccc(F)cc1C(=O)N1CCC[C@H]1C (single isomer, unassigned) [Compound 353b] | 0.238 nM | – | – | – | 236 nM | 139 nM | – | –
4 | CCN(C(=O)c1cc(F)ccc1-n1cc(CC2CN(C(C(C)C)[C@H]3C[C@@H](N4CCN(C(C)=O)CC4)C3)C2)c2c(C)cncc21)C(C)C (stereo partly drawn) [Compound 35a] | 0.059 nM | 1500 nM | – | – | – | – | 21 nM | –
5 | CN=S(=O)(c1cc(F)ccc1-n1cc(CC2CN(CC3CCOCC3)C2)c2c(C)cncc21)C(C)C (stereo not drawn) [Compound 79] | 0.168 nM | 9400 nM | 92 nM | – | – | – | – | –
6 | Cc1cncc2c1c(CC1CN(CC3CCOCC3)C1)cn2-c1ccc(F)cc1S(=N)(=O)C(C)C (stereo not drawn) [Compound 80] | 0.116 nM | 7200 nM | 99 nM | – | – | – | – | –
7 | Cc1cncc2c1c(CC1CN(CC3CCC(=O)NC3)C1)cn2-c1ccc(F)cc1C(=O)N(C)C(C)C (stereo not drawn) [Compound 120] | 0.054 nM | – | 539 nM | – | – | – | 149 nM | –
8 | CNC(=O)[C@H]1CC[C@H](CN2CC(C)(Cc3cn(-c4ccc(F)cc4C(=O)N(C)C(C)C)c4cncc(C)c34)C2)CC1 [Compound 140] | ~0.17 nM | – | 15 nM | – | – | – | 49 nM | –
9 | Cc1cncc2c1c(C[C@@H]1CCN(C[C@@H]3CCCCN3)C1)cn2-c1ccc(F)cc1C(=O)N(C)C(C)C [Compound 148] | 0.086 nM | – | 88 nM | – | – | – | 238 nM | –
10 | COC(=O)[C@H]1CC[C@H](CN2CC[C@@H](Cc3cn(-c4ccc(F)cc4C(=O)N(C)C(C)C)c4cncc(C)c34)C2)CC1 [Compound 154] | 0.14 nM | – | 91 nM | – | – | – | 244 nM | –
11 | Cc1cncc2c1c(CC1CN(C[C@H]3CC[C@H](C(=O)NCCC#N)CC3)C1)cn2-c1ccc(F)cc1C(=O)N(C)C(C)C [Compound 155] | 0.051 nM | – | 49 nM | – | – | – | 54 nM | –
12 | Cc1cncc2c1c(C[C@H]1CCN(CC3CCN(C(=O)NC4CC4)CC3)C1)cn2-c1ccc(F)cc1C(=O)N(C)C(C)C [Compound 157] | 0.02 nM | – | 2 nM | – | – | – | 6 nM | –
13 | COCCNC(=O)[C@H]1CC[C@H](CN2CC(Cc3cn(-c4ccc(F)cc4C(=O)N(C)C(C)C)c4cncc(C)c34)C2)CC1 [Compound 158] | 0.045 nM | – | 6 nM | – | – | – | 24 nM | –
14 | Cc1cncc2c1c(CC1CN(C[C@H]3CC[C@H](C(=O)NC4CC4)CC3)C1)cn2-c1ccc(F)cc1C(=O)N(C)C(C)C [Compound 159] | 0.019 nM | – | 3 nM | – | – | – | 10 nM | –
15 | Cc1cncc2c1c(C[C@@H]1CCN(C3CCN(S(C)(=O)=O)CC3)C1)cn2-c1ccc(F)cc1C(=O)N(C)C(C)C [Compound 161] | 0.167 nM | – | 53 nM | – | – | – | 256 nM | –
16 | CNC(=O)N1CCC(CN2CC[C@H](Cc3cn(-c4ccc(F)cc4C(=O)N(C)C(C)C)c4cncc(C)c34)C2)CC1 [Compound 168] | 0.1 nM | – | – | – | – | 16 nM | – | 8 nM
17 | Cc1cncc2c1c(C[C@H]1CCN(CC3CCN(C(=O)N(C)C)CC3)C1)cn2-c1ccc(F)cc1C(=O)N(C)C(C)C [Compound 170] | 0.155 nM | – | 14 nM | – | – | – | 79 nM | –
18 | COCCN(C)C(=O)N1CCC(CN2CC[C@@H](Cc3cn(-c4ccc(F)cc4C(=O)N(C)C(C)C)c4cncc(C)c34)C2)CC1 [Compound 172] | 0.134 nM | – | 11 nM | – | – | – | 18 nM | –
19 | CON(C)C(=O)N1CCC(CN2CC[C@@H](Cc3cn(-c4ccc(F)cc4C(=O)N(C)C(C)C)c4cncc(C)c34)C2)CC1 [Compound 173] | 0.056 nM | – | 5 nM | – | – | – | 32 nM | –
20 | Cc1cncc2c1c(C[C@@H]1CCN(CC3CCN(C(=O)N4CCOCC4)CC3)C1)cn2-c1ccc(F)cc1C(=O)N(C)C(C)C [Compound 174] | 0.048 nM | – | 7 nM | – | – | – | 34 nM | –
21 | CC(=O)N1CCC(O)(CN2CC[C@@H](Cc3cn(-c4ccc(F)cc4C(=O)N(C)C(C)C)c4cncc(C)c34)C2)CC1 [Compound 177] | 0.109 nM | – | 35 nM | – | – | – | 268 nM | –
22 | Cc1cncc2c1c(C[C@@H]1CCN(CC3CCC(=O)N(C)CC3)C1)cn2-c1ccc(F)cc1C(=O)N(C)C(C)C (stereo partly drawn) [Compound 184] | 0.06 nM | 7400 nM | 26 nM | – | – | – | – | –
23 | CC(=O)N1CCC(CN2CC[C@@H](Cc3cn(-c4ccc(F)cc4C(=O)N4CCC(O)C4(C)C)c4cncc(C)c34)C2)CC1 (stereo partly drawn) [Compound 313] | 0.155 nM | – | 179 nM | – | – | – | 552 nM | –
24 | [2H]C([2H])([2H])N(C(=O)c1cc(F)ccc1-n1cc(C[C@@H]2CCN(CC3CCN(C(C)=O)CC3)C2)c2c(C)cncc21)C(C)C [Compound 314] | 0.055 nM | – | 6 nM | – | – | – | 19 nM | –
25 | COCC1CCCN1C(=O)c1cc(F)ccc1-n1cc(C[C@@H]2CCN(CC3CCN(C(C)=O)CC3)C2)c2c(C)cncc21 (stereo partly drawn) [Compound 321] | 0.257 nM | – | 232 nM | – | – | – | 413 nM | –
26 | CC(=O)N1CCC(CN2CC[C@@H](Cc3cn(-c4ccc(F)cc4C(=O)N4CCC[C@@H]4CO)c4cncc(C)c34)C2)CC1 [Compound 322] | 0.152 nM | – | 323 nM | – | – | – | ~547 nM | –
27 | CC(=O)N1CCC(CN2CC[C@@H](Cc3cn(-c4ccc(F)cc4C(=O)N4CCC[C@H]4CO)c4cncc(C)c34)C2)CC1 [Compound 323] | 0.08 nM | – | 142 nM | – | – | – | ~146 nM | –
28 | CC(=O)N1CCC(CN2CC[C@@H](Cc3cn(-c4ccc(F)cc4C(=O)N(CCO)C(C)C)c4cncc(C)c34)C2)CC1 [Compound 326] | 0.038 nM | – | 16 nM | – | – | – | 23 nM | –
29 | Cc1cncc2c1c(C[C@@H]1CCN(CC3CCOCC3)C1)cn2-c1ccc(F)cc1C(=O)N1C[C@H](O)C[C@H]1C [Compound 359] | 0.166 nM | – | 79 nM | – | – | – | 358 nM | –
